Data from patent US11638737B2, “Food compositions and pharmaceutical compositions containing Filipendula glaberrima extract for lowering blood cholesterol levels and for ameliorating atherosclerosis” (KOREA INSTITUTE OF SCIENCE AND TECHNOLOGY, priority 2019, dated 2023).
In brackets after ≈: the same amount, converted by molar mass.

How the values were obtained:
HMG-CoA reductase = target: T1, HMG-CoA reductase (Homo sapiens, UniProt P04035); assay: HMG-CoA reductase inhibitory effect (modified Perchellet's assay, absorbance at 340 nm); type: biochemical; details: mean ± standard error; values without (μM) mark
T1 construct: purchased Sigma-Aldrich (St. Louis, Mo.)
T1 sequence (P04035 426-888 limits assumed): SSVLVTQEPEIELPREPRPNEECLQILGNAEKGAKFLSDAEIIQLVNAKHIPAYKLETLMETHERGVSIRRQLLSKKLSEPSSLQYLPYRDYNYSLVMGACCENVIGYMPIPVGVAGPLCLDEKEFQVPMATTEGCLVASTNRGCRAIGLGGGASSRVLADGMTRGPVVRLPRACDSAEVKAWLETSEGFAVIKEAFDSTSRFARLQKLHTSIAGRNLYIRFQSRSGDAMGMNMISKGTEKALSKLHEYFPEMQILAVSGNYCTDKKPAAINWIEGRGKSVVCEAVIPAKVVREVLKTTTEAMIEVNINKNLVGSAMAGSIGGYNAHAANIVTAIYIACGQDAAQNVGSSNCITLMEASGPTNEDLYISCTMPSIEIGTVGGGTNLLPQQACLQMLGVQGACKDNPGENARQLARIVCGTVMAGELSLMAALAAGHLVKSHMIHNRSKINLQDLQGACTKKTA
Method: Transparent 96-well plates were purchased from SPL Lifesciences (Pocheon). A VERSA Max™ microplate reader from Molecular Devices was used.
The sample for detection was dissolved in DMSO before use.
The activity of HMG-CoA reductase was compared and analyzed by recording the absorbance at 340 nm at 37° C. for 10 minutes using a VERSA Max™ microplate reader. […] The experiment was repeated three times.

[1] = DPPH radical scavenging effect; details: samples marked (μM); read-out: SC50 DPPH radical
Text: Data are expressed as an average of measurements conducted in triplicate.

[2] = tested on: lipid peroxide formation in liver homogenate; assay: Lipid peroxide production inhibitory effect (LPO) in rat liver homogenate; type: biochemical, Sprague-Dawley rats; details: for IC50: samples marked (μM)
Method: The lipid peroxide production inhibitory effect (LPO) of the extract and the isolated compounds were tested. Lipid peroxide is a substance produced by peroxidation of lipids through various oxidation reactions. Reactive oxygen species, free radicals and the like oxidize phospholipids of cell membranes containing great amounts of unsaturated fatty acids, producing lipid peroxides in the cell membranes. When the lipid peroxides are accumulated in the cell membranes, the fluidity and functionality of the cell membrane are deteriorated, resulting in local disorders in tissues such as inhibition of cell functions and changes in cell structures.
Therefore, the effects of inhibiting lipid peroxide production by the Filipendula glaberrima leaf and stem extracts and the isolated compounds were measured as follows. The animals used in the experiment were male Sprague-Dawley rats, and only water was supplied for 24 hours before the experiment. […] The experimental animals were subjected to respiratory anesthesia with isoflurane, and dissected and a 0.15 M ice-cold KCl solution was perfused through the liver portal vein to remove blood from the liver and extract the liver. […] 50 mM Tris-HCl buffer (pH 7.5) was added to 300 μl of a liver homogenate (11 mg protein/ml), 10 μM FeSO4, 10 μl of a test drug and 0.4 mM ascorbic acid to adjust the total volume to 1 ml, and then the resulting mixture was incubated at 37° C. for 30 minutes.

[3] = Xanthine/xanthine oxidase-induced superoxide anion scavenging effect; type: biochemical; details: samples marked (μM); read-out: SC50 Superoxide anion radical (O2−)
Method: Specifically, 0.1 mM xanthine, 0.1 mM EDTA, 50 μg/ml of bovine serum albumin (BSA), […] nitroblue tetrazolium (NBT), a 40 mM Na2CO3 solution, a test sample solution diluted at each concentration and a solution with a final volume of 200 μl containing 1.4×10^−3 unit XOD were mixed and reacted at 25° C. for 20 minutes.

IC50 (HMG-CoA reductase) [µM] | IC50 [1] [µM] | IC50 [2] [µM] | IC50 [3] [µM] | IC50 LPO ([2]; rat liver homogenate, FeSO4/ascorbic acid, TBA, 535 nm) [µg/mL] | SMILES
175 ± 2.2 | 47.88 ± 0.01 | 89 ± 3.69 | – | – | C[C@@H]1CC[C@]2(C(=O)O[C@@H]3OC(COC(=O)c4cc(O)c(O)c(O)c4)[C@@H](O)[C@H](O)C3O)CC[C@]3(C)C(=CC[C@@H]4[C@@]5(C)C[C@@H](O)[C@H](O)C(C)(C)[C@@H]5CC[C@]43C)[C@@H]2[C@]1(C)O (some centres unmarked) [Compound 1]
– | 47.5 ± 0.41 | > 50 | > 50 | – | Cc1c(C)c2c(c(C)c1O)CCC(C)(C(=O)O)O2 (centres unmarked) [Trolox]
– | 29.3 ± 2.49 | – | > 50 | – | O=C1O[C@H]([C@@H](O)CO)C(O)=C1O [Vit. C, ascorbic acid]
– | 19 ± 2.25 | 29.6 ± 1.32 | > 50 | 29.57 ± 1.32 (≈ 97.8 µM) | O=c1c(O)c(-c2ccc(O)c(O)c2)oc2cc(O)cc(O)c12 [Quercetin]
– | – | 35.64 ± 0.01 | – | – | Oc1ccc(C=Cc2cc(O)cc(O)c2)cc1 [Resveratrol]
1.46 ± 0.22 | 3.62 ± 0.57 | 7.99 ± 0.05 | 41.1 ± 2.24 | – | COC(=O)c1cc(O)c(O)c(O)c1Oc1cc2c(c(O)c1O)-c1c(cc(O)c(O)c1O)C(=O)O[C@@H]1C(COC2=O)OC(O)C(OC(=O)c2cc(O)c(O)c(O)c2)C1OC(=O)c1cc(O)c(O)c(O)c1 (some centres unmarked) [Compound 2]
